The text below walks through data of patent US20130253179A1, “Functionalization Processes and Reactants Used in Such Processes Using an Isatoic Anhydride or a Derivative Thereof, Biological Molecules Thus Treated and Kits” (priority 2010, published 2013).

By solubility is commonly meant how much of the substance goes into solution per volume. A lower solubility goes with a poorly soluble substance.

In data set [1] the test system is model oligoribonucleotide (ORN) with 27 bases. Kind of data set: Functionalisation of a model ORN with 27 bases: functionalisation rate and regiospecificity by HPLC/LC-MS after nuclease P1/alkaline phosphatase hydrolysis. Type of data set: biochemical. Conditions: compound 30 mM, 1 h at 65° C., 250 mM TEAAc pH 7, 25% DMSO; for Fr (corrected functionalisation rate): ORN 8 nmol. The source says:
For this purpose, a fixed quantity of ORN is reacted with an isatoic anhydride derivative conjugated to a molecule of interest (Cy3 IA Me (13)), under various temperature conditions, duration conditions, reaction medium conditions, etc. HPLC monitoring of the reaction at 260 nm makes it possible to detect the disappearance of the peak corresponding to the initial ORN and the appearance of peaks corresponding to acylated ORN. These products have a greater retention time and have an absorption spectrum corresponding to both that of ORN and that of the fluorescent label.
However, for greater precision on the functionalisation site and to precisely evaluate the functionalisation rate (Fr), the ORN population (labelled and unlabelled) is separated from the excess label by precipitation with acetone/lithium perchlorate or by gel permeation (NAP 5™, GE Health Care. Then the ORNs thus obtained are submitted to hydrolysis with the nuclease P1 (Aldrich, Saint Louis, USA) and with the alkaline phosphatase (Aldrich, Saint Louis, USA), in order to hydrolyse the phosphate diester bonds of ORN.
The ORN functionalisation rate (Fr) is evaluated by measuring: • the area corresponding to the terminal mononucleoside adducts (functionalised at 2′ and at 3′) and the area corresponding to the acylated dinucleosides (functionalised internally on 2′OH) • compared to the area of the peaks corresponding to the four ribonucleosides.
The internal/external regiospecificity of the acylation is evaluated by measuring the relative proportion of the areas corresponding to the: • end mono-nucleotides acylated at 2′ and at 3′ • and di-nucleotides acylated internally on 2′OH • which are easily detectable by HPLC.
The mixture is incubated for 60 minutes at 65° C. in an oven on a rack which is temperature-balanced in advance. An HPLC injection (conditions 3) makes it possible to monitor a formation of a certain quantity of acylated ORN as described in FIG. 6. To eliminate the salts and the excess label, the mixture is then purified on Sephadex NAP 5 gel (GE Health Care, Uppsala, Sweden)) and/or triple precipitation in 1.2 mL of a 180 mM Acetone/LiClO4 75/25 mixture. To finish, the pellet is dried with acetone and is evaporated with the centrifugal evaporator (RCT 60, Jouan, St Herblain, France). The residue is then taken up in 33 μL of a H2O/DMSO 85/15 solution and an HPLC injection (conditions 3) is performed in order to verify the proper elimination of the label. There is added to the mixture 2 μL of nuclease P1 (ref.: N8630 Sigma-Aldrich, St Louis, USA) in 1 U/μl solution in its buffer: 20 mM sodium acetate pH 5.5; 1 mM ZnCl2; 50 mM NaCl and 1 μL of 7 u/μl alkaline phosphatase in water (Ref. P7923-2KU Sigma-Aldrich, St Louis, USA). The medium is left at ambient temperature for 4 to 6 hours. It is then injected into HPLC (conditions 3) in order to verify the total hydrolysis of the ORN and in order to analyse the nature of the fragments obtained in accordance with what was described above and as described in FIG. 6.
The functionalisation rate is evaluated with UV at 260 nm by integration of the clusters corresponding to the acylated dinucleotides and to the acylated nucleosides) relative to the clusters corresponding to the four ribonucleosides. The ratio of the population of acylated dinucleotides to the population of acylated nucleosides is evaluated in the same way in order to evaluate the percentage of functionalisation on the 3′ terminal end.
The functionalisation rate values, presented within the framework of this invention, take into account the correction factor which must be applied according to the molar extinction coefficient at 260 nm of each of the nucleosides and according to whether they are nucleosides or dinucleotides. […]

Data set [2] is described as follows: Solubility in water.
In data set [3] the test system is ODN with 53 bases. Kind of data set: RNA vs DNA chemoselectivity: functionalisation of an ODN with 53 bases. Type of data set: biochemical. The note with it: compound 30 mM, DMSO/TEAAc buffer 25/75 (250 mM pH 7), 1 h at 65° C. The protocol:
After precipitation with acetone and hydrolysis with nuclease P1 and alkaline phosphatase, the hydrolysed fragments are analysed by LC-MS, as described in example 3. An example of the chromatograms monitoring the reaction of ODN or ORN with compound 13 is shown in FIG. 9, in which graphs A, B and C respectively represent ORN, ORN functionalised with compound 13 and precipitated, and ORN functionalised with 13, precipitated and hydrolysed. Graphs D, E and F represent the same thing, but with ODN.

The subject of data set [4] is in vitro RNA transcripts. Kind of data set: Detection on Affymetrix DNA chip of biotinylated in vitro RNA transcripts. The arrangement: species or system human. The note with it: 30 mM compound, 60 mins at 65° C.; background in the order of 30 RFU. The protocol: The in vitro transcripts are generated by in vitro transcription of the total RNA extracted from blood samples with the aid of the MessageAmp II kit (Reference AM 1751, AMBION, Austin, Tex.). Briefly, after extraction of the total RNA from the blood cells, a first reverse transcription step by the enzyme […] is performed in order to generate the DNA strand complementary to the mRNA (cDNA). The RNA strand is then digested by the RNase H before forming the double strand of cDNA by means of a DNA polymerase. Finally, the antisense RNA (in vitro transcripts) is obtained from the cDNA using the transcriptase T7.
17.6 μL of previously obtained solution of in vitro RNA transcripts (568 ng/μl), 9.4 μL of ultrapure water and 3 μL of 100 mM Zn(OAc)2 pH 6.5 is mixed. This solution is then incubated for 15 mins at 70° C., and then placed immediately into ice.
30 μL of this solution is sampled, to which there is added 30 μL of a potassium phosphate solution (pH 7, 1M), 30 μL of ultrapure water and 30 μl of the compound SBiot IA Me (9) in a 120 mM solution in DMSO. […]
The excess reagent is then removed in the same way as in example 7 by precipitation with isopropanol. As well as depositing on an Affymetrix chip GeneChip Human Genome U133 Plus 2.0 Array, ref 900470, Affymetrix, St Clara, USA), the detection and measurement of the fluorescence.

A short description of data set [5]: physchem. The note with it: water.

≈ marks a conversion by molar mass, not a printed value.

With `O=C(CCCCC1SCC2NC(=O)NC21)Nc1ccc2[nH]c(=O)oc(=O)c2c1` (stereo not shown) [5Biot IA 5, 5-biotin-isatoic anhydride], the “Fr (corrected functionalisation rate)” value in data set [1] came to 1.2%. The compound further gave a solubility in data set [2] of 1 mM (≈ 0.404 mg/mL).

As for `Cn1c(=O)oc(=O)c2cc(NC(=O)CCCCC3SCC4NC(=O)NC43)ccc21` (stereo not shown) [5Biot IA Me 9, 1-Methyl-5 biotin-isatoic anhydride], in data set [1], the “Fr (corrected functionalisation rate)” value turned out to be 2.6% and the “External/internal regiospecificity (uncorrected ratio of areas acylated mononucleosides / acylated dinucleotides)” value is reported as 55/45. Besides, the “corrected functionalisation rate of the ODN” value in data set [3] was 0.1%. Besides, in data set [4], the “fluorescence intensities compared with background noise of unfunctionalised target IVTs” value is reported as “very substantially greater than the background noise”.

For the compound `O=C(CCCCC1SCC2NC(=O)NC21)Nc1ccc2c(c1)c(=O)oc(=O)n2CCCS(=O)(=O)O` (stereo not shown) [5Biot IA SO3^− 10, 1-propylsulfone-5-biotin-isatoic anhydride], in data set [1], the “Fr (corrected functionalisation rate)” value is given as 1.6% and the “External/internal regiospecificity (uncorrected ratio of areas acylated mononucleosides / acylated dinucleotides)” value is 60/40.

As to `O=C(CCCCC1SCC2NC(=O)NC21)NCCOCCOCCOCCOCCC(=O)Nc1ccc2[nH]c(=O)oc(=O)c2c1` (stereo not shown) [5Biot PEG4 IA 6, 5-biotin-hexyl ethylene glycol-isatoic anhydride], in data set [1], the “Fr (corrected functionalisation rate)” value turned out to be 3.3% and the “External/internal regiospecificity (uncorrected ratio of areas acylated mononucleosides / acylated dinucleotides)” value is 62/38. The compound further gave a solubility in data set [2] of 19 mM (≈ 12.4 mg/mL).

For the compound `Cn1c(=O)oc(=O)c2cc(NC(=O)CCOCCOCCOCCOCCNC(=O)CCCCC3SCC4NC(=O)NC43)ccc21` (stereo not shown) [5Biot PEG4 IA Me 11, 1-methyl-5-biotin-hexyl ethylene glycol-isatoic anhydride], in data set [1], the “Fr (corrected functionalisation rate)” value was found to be 4% and the “External/internal regiospecificity (uncorrected ratio of areas acylated mononucleosides / acylated dinucleotides)” value was 60/40. The amount in solution in data set [2] (solubility) came to 50 mM (≈ 33.3 mg/mL).

As to `O=C(CCCCC1SCC2NC(=O)NC21)NCCOCCOCCOCCOCCC(=O)NCCSSCCC(=O)Nc1ccc2[nH]c(=O)oc(=O)c2c1` (stereo not shown) [5Biot PEG4 SS IA 23], in data set [1], the “Fr (corrected functionalisation rate)” value amounted to 3.1% and the “External/internal regiospecificity (uncorrected ratio of areas acylated mononucleosides / acylated dinucleotides)” value is reported as 52/48.

Regarding `CCN1/C(=C\C=C\C2=[N+](CCCCCC(=O)Nc3ccc4[nH]c(=O)oc(=O)c4c3)c3ccc(S(=O)(=O)[O-])cc3C2(C)C)C(C)(C)c2cc(S(=O)(=O)O)ccc21` [Cy3 IA 7, 5-Cy3 isatoic anhydride], in data set [1], the “Fr (corrected functionalisation rate)” value is 2.6% and the “External/internal regiospecificity (uncorrected ratio of areas acylated mononucleosides / acylated dinucleotides)” value was 61/39. This compound yielded a solubility in data set [5] of more than 100 mM.

Consider `CC(=O)Nc1ccc2c(c1)c(=O)oc(=O)n2CC(=O)NCCOCCOCCNC(=O)CCCCC1SCC2NC(=O)NC21` (stereo not shown) [N(Biot PEG2) acetamido IA 19, 1-biotin-diethyleneglycol-5-acetamido-isatoic anhydride], for which, in data set [1], the “Fr (corrected functionalisation rate)” value was determined as 1.2% and the “External/internal regiospecificity (uncorrected ratio of areas acylated mononucleosides / acylated dinucleotides)” value is on record as 50/50.

On to `O=C(CCCCC1SCC2NC(=O)NC21)NCCOCCOCCNC(=O)Cn1c(=O)oc(=O)c2ccccc21` (stereo not shown) [N(Biot PEG2)IA 18, 1-biotin-ethylene glycol-isatoic anhydride], for which, in data set [1], the “Fr (corrected functionalisation rate)” value was 3.4% and the “External/internal regiospecificity (uncorrected ratio of areas acylated mononucleosides / acylated dinucleotides)” value is recorded as 56/44.

For `O=C(CCCCCn1c(=O)oc(=O)c2ccccc21)NCCCOCCOCCOCCCNC(=O)CCCCC1SCC2NC(=O)NC21` (stereo not shown) [N(Biot PEG4) IA 21, N-(N-(biotin-dPEG3-propyl)-6-bromohexanamide) isatoic anhydride], in data set [1], the “Fr (corrected functionalisation rate)” value is 0.7% and the “External/internal regiospecificity (uncorrected ratio of areas acylated mononucleosides / acylated dinucleotides)” value is reported as 49/51.
